Test results taken from patent US10538554B2, “Peptides and uses therefor as antiviral agents” (priority 2015, dated 2020).
Like-named read-outs stand apart in the source and are kept apart here. Bridge positions count the residues as written; N and C are the ends. Square brackets hold non-standard residues; d marks the D form. Peptide text beside a SMILES is read from it.

Legend:
[1] = system: Influenza B/MALAYSIA/2506/04
[2] = system: H1N1 A1/Malaysia/302/1954; settings: A1/Malaysia/302/1954, 48 h
[3] = system: H1N1 A/NY/18/2009; settings: A/NY/18/2009, 48 h; for % Inhibition Pdm 2009: 10 μM
[4] = system: H1N1 A/PR/8/1934; settings: A/PR/8/1934, 48 h; for % Inhibition: 1 μM; for % Inhibition PR/8: 10 μM
[5] = system: H3N8 A/Miami/2/63; settings: A/Miami/2/63, 48 h
[6] = system: H3N2 A/HK/8/1968; settings: A/HK/8/1968, 48 h
[7] = system: H9N2 A/Iran/16/2000; settings: 48 h
[8] = system: H5N1 A/Kampung pasir/5744/2004; settings: A/Kampung pasir/5744/2004, 48 h

Row | SMILES | IC50 [1] [nM] | IC50 [2] [nM] | IC50 [3] [nM] | IC50 [4] [nM] | % Inhibition [4] [%] | IC50 [5] [nM] | IC50 [6] [nM] | IC50 [7] [nM] | % inhibition H1N1 ([2]; 10 μM) [%] | % inhibition H1N1 ([2]; 50 μM) [%] | % Inhibition Pdm 2009 [3] [%] | % Inhibition PR/8 [4] [%] | % inhibition H3N8 ([5]; 10 μM) [%] | % inhibition H3N8 ([5]; 50 μM) [%] | IC50 [8] [nM] | % inhibition H3N2 ([6]; 10 μM) [%] | % inhibition H3N2 ([6]; 50 μM) [%] | % inhibition H9N2 ([7]; 10 μM) [%] | % inhibition H9N2 ([7]; 50 μM) [%]
1 | CC[C@@H](C)[C@H]1NC(=O)[C@@H](Cc2ccccc2)NC(=O)[C@@H]([C@H](C)O)NC(=O)[C@@H](Cc2ccccc2)NC(=O)[C@@H](Cc2c[nH]c3ccccc23)NC(=O)[C@@H](Cc2c[nH]c3ccccc23)NC(=O)[C@H](NC(=O)[C@H](CCCCN)NC(=O)[C@H](CCCCN)NC(=O)[C@H](CCCNC(=N)N)NC(=O)[C@@H](N)CCCNC(=N)N)CSSC[C@H](C(=O)O)NC(=O)[C@@H](C)NC1=O [PSP VI A1, H-RRKKcwwftfiac-OH] (H-RRKK[dC][dW][dW][dF][dT][dF][dI][dA][dC]-OH; disulfide 5-13) | 1.2 | 5 | 0.13 | 4 | 98.5 | 2 | 1.9 | 10.4 | – | – | – | – | – | – | – | – | – | – | –
2 | CC[C@@H](C)[C@H]1NC(=O)[C@@H](Cc2ccccc2)NC(=O)[C@@H](CCCNC(=N)N)NC(=O)[C@@H](Cc2ccccc2)NC(=O)[C@@H](Cc2c[nH]c3ccccc23)NC(=O)[C@@H]([C@H](C)O)NC(=O)[C@H](NC(=O)[C@H](CCCCN)NC(=O)[C@H](CCCCN)NC(=O)[C@H](CCCNC(=N)N)NC(=O)[C@@H](N)CCCNC(=N)N)CSSC[C@H](C(=O)O)NC(=O)[C@@H](CC(N)=O)NC1=O [PSP III B5, H-RRKKctwfrfinc-OH] (H-RRKK[dC][dT][dW][dF][dR][dF][dI][dN][dC]-OH; disulfide 5-13) | – | 1600 | 1170 | 1200 | – | 150 | 1400 | 900 | 80 | 96 | 73 | 88 | 92 | 100 | 220 | 87 | 100 | 76 | 90
3 | CC[C@@H](C)[C@H]1NC(=O)[C@@H](Cc2ccccc2)NC(=O)[C@@H]([C@H](C)O)NC(=O)[C@@H](Cc2ccccc2)NC(=O)[C@@H](Cc2c[nH]c3ccccc23)NC(=O)[C@@H]([C@H](C)O)NC(=O)[C@H](NC(=O)[C@H](CCCCN)NC(=O)[C@H](CCCCN)NC(=O)[C@H](CCCNC(=N)N)NC(=O)[C@@H](N)CCCNC(=N)N)CSSC[C@H](C(=O)O)NC(=O)[C@@H](CC(N)=O)NC1=O [PSP IV A17, H-RRKKctwftfinc-OH] (H-RRKK[dC][dT][dW][dF][dT][dF][dI][dN][dC]-OH; disulfide 5-13) | 990 | 51 | 33 | 260 | <20 | – | 56 | – | 91 | – | 97 | 97 | 97 | – | – | 97 | – | 92 | –
4 | CC[C@@H](C)[C@H]1NC(=O)[C@@H](Cc2ccccc2)NC(=O)[C@@H](CCC(N)=O)NC(=O)[C@@H](Cc2ccccc2)NC(=O)[C@@H](Cc2c[nH]c3ccccc23)NC(=O)[C@@H]([C@H](C)O)NC(=O)[C@H](NC(=O)[C@H](CCCCN)NC(=O)[C@H](CCCCN)NC(=O)[C@H](CCCNC(=N)N)NC(=O)[C@@H](N)CCCNC(=N)N)CSSC[C@H](C(=O)O)NC(=O)[C@@H](CC(N)=O)NC1=O [PSP IV A14, H-RRKKctwfqfinc-OH] (H-RRKK[dC][dT][dW][dF][dQ][dF][dI][dN][dC]-OH; disulfide 5-13) | – | – | – | – | – | – | – | – | 66 | – | 74 | 77 | 83 | – | – | 83 | – | 68 | –
5 | CC[C@@H](C)[C@H]1NC(=O)[C@@H](Cc2ccccc2)NC(=O)[C@@H]([C@H](C)CC)NC(=O)[C@@H](Cc2ccccc2)NC(=O)[C@@H](Cc2c[nH]c3ccccc23)NC(=O)[C@@H]([C@H](C)O)NC(=O)[C@H](NC(=O)[C@H](CCCCN)NC(=O)[C@H](CCCCN)NC(=O)[C@H](CCCNC(=N)N)NC(=O)[C@@H](N)CCCNC(=N)N)CSSC[C@H](C(=O)O)NC(=O)[C@@H](CC(N)=O)NC1=O [PSP IV A8, H-RRKKctwfifinc-OH] (H-RRKK[dC][dT][dW][dF][dI][dF][dI][dN][dC]-OH; disulfide 5-13) | – | – | – | – | – | – | – | – | 92 | – | 95 | 97 | 96 | – | – | 96 | – | 92 | –
6 | CC[C@@H](C)[C@H]1NC(=O)[C@@H](Cc2ccccc2)NC(=O)[C@@H](Cc2c[nH]c3ccccc23)NC(=O)[C@@H](Cc2ccccc2)NC(=O)[C@@H](Cc2c[nH]c3ccccc23)NC(=O)[C@@H]([C@H](C)O)NC(=O)[C@H](NC(=O)[C@H](CCCCN)NC(=O)[C@H](CCCCN)NC(=O)[C@H](CCCNC(=N)N)NC(=O)[C@@H](N)CCCNC(=N)N)CSSC[C@H](C(=O)O)NC(=O)[C@@H](CC(N)=O)NC1=O [PSP IV A19, H-RRKKctwfwfinc-OH] (H-RRKK[dC][dT][dW][dF][dW][dF][dI][dN][dC]-OH; disulfide 5-13) | – | – | – | – | – | – | – | – | 87 | – | 94 | 90 | 94 | – | – | 94 | – | 95 | –
7 | CC[C@@H](C)[C@H]1NC(=O)[C@@H](Cc2ccccc2)NC(=O)[C@@H](CC(C)C)NC(=O)[C@@H](Cc2ccccc2)NC(=O)[C@@H](Cc2c[nH]c3ccccc23)NC(=O)[C@@H]([C@H](C)O)NC(=O)[C@H](NC(=O)[C@H](CCCCN)NC(=O)[C@H](CCCCN)NC(=O)[C@H](CCCNC(=N)N)NC(=O)[C@@H](N)CCCNC(=N)N)CSSC[C@H](C(=O)O)NC(=O)[C@@H](CC(N)=O)NC1=O [PSP IV A10, H-RRKKctwflfinc-OH] (H-RRKK[dC][dT][dW][dF][dL][dF][dI][dN][dC]-OH; disulfide 5-13) | – | – | – | – | – | – | – | – | 90 | – | 85 | 96 | 96 | – | – | 96 | – | 97 | –
8 | CC[C@@H](C)[C@H]1NC(=O)[C@@H](Cc2ccccc2)NC(=O)[C@@H](C(C)C)NC(=O)[C@@H](Cc2ccccc2)NC(=O)[C@@H](Cc2c[nH]c3ccccc23)NC(=O)[C@@H]([C@H](C)O)NC(=O)[C@H](NC(=O)[C@H](CCCCN)NC(=O)[C@H](CCCCN)NC(=O)[C@H](CCCNC(=N)N)NC(=O)[C@@H](N)CCCNC(=N)N)CSSC[C@H](C(=O)O)NC(=O)[C@@H](CC(N)=O)NC1=O [PSP IV A18, H-RRKKctwfvfinc-OH] (H-RRKK[dC][dT][dW][dF][dV][dF][dI][dN][dC]-OH; disulfide 5-13) | – | – | – | – | – | – | – | – | 84 | – | 97 | 96 | 96 | – | – | 96 | – | 95 | –
9 | CC[C@@H](C)[C@H]1NC(=O)[C@@H](Cc2ccccc2)NC(=O)[C@@H](Cc2c[nH]cn2)NC(=O)[C@@H](Cc2ccccc2)NC(=O)[C@@H](Cc2c[nH]c3ccccc23)NC(=O)[C@@H]([C@H](C)O)NC(=O)[C@H](NC(=O)[C@H](CCCCN)NC(=O)[C@H](CCCCN)NC(=O)[C@H](CCCNC(=N)N)NC(=O)[C@@H](N)CCCNC(=N)N)CSSC[C@H](C(=O)O)NC(=O)[C@@H](CC(N)=O)NC1=O [PSP IV A7, H-RRKKctwfhfinc-OH] (H-RRKK[dC][dT][dW][dF][dH][dF][dI][dN][dC]-OH; disulfide 5-13) | – | – | – | – | – | – | – | – | 68 | – | 71 | 73 | 79 | – | – | 80 | – | 65 | –
